According to patent EP1826201A1, “Substituted phenylpiperidine derivatives as melanocortin-4 receptor modulators” (Santhera Pharmaceuticals (Schweiz) AG, priority 2006, dated 2007):

Columns and labels:
hMC-4R [1] = target: T1, hMC-4R (Homo sapiens, UniProt P32245); experiment: Membrane binding assay (fluorescence polarization, competition with fluorescence labeled NDP-alpha-MSH); settings: HEK293 cell membrane preparations expressing human melanocortin receptors; 5 h at room temperature
T1 construct: expressed in transfected cells; host or cells: HEK293
T1 sequence (P32245 whole entry): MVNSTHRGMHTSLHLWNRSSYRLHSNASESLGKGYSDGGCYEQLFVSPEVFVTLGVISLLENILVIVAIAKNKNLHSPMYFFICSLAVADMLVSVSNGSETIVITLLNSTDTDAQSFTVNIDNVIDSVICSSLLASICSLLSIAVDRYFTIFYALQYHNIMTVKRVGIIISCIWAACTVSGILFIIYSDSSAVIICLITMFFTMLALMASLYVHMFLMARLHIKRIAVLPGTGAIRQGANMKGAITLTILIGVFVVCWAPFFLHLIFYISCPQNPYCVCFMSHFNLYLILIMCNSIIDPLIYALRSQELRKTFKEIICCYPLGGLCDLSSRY

hMC-4R [2] = target: T1, hMC-4R; experiment: Functional assay (membrane based cAMP fluorescence polarization assay, agonistic activity); assay type: biochemical; settings: for Emax / % activation functional assay: cAMP produced compared to stimulation with NDP-alpha-MSH; for Emax: read-out: % activation functional assay; for EC50: membrane preparations from HEK293 cells expressing the human melanocortin receptors, cAMP production
Protocol: Agonistic activity of human melanocortin receptors is determined in a homogeneous membrane based assay.
Membrane preparations from HEK293 cells expressing the human melanocortin receptors are added. After a short preincubation period, an appropriate amount of ATP, GTP and the cAMP antibody is added and the plate is further incubated before the fluorescence labeled cAMP conjugate is dispensed. The plate is incubated for 2 h at 4°C before it is read on a fluorescence polarization microplate reader. The amount of cAMP produced as a response to a test compound is compared to the production of cAMP resulting from stimulation with NDP-alpha-MSH.

`NC(Cc1ccc(Cl)cc1Cl)C(=O)N1CCC(c2ccc(F)cc2OCCN2CCCC2)CC1` (centres unmarked) [Example 2] showed an IC50 (hMC-4R [1]) of 0.064 µM and an Emax (hMC-4R [2]) of 22%.
In the case of `NC(Cc1ccc(Cl)cc1)C(=O)N1CCC(c2ccccc2OCCN2CCCC2)CC1` (centres unmarked) [Example 101], the IC50 (hMC-4R [1]) was 0.47 µM, the Emax (hMC-4R [2]) was 78% and the EC50 (hMC-4R [2]) was 1.6 µM.
`NC(Cc1ccc(Cl)cc1)C(=O)N1CCC(c2cc(F)c(F)cc2OCCN2CCCCC2)CC1` (centres unmarked) [Example 112] gave an IC50 (hMC-4R [1]) of 0.26 µM, an Emax (hMC-4R [2]) of 73% and an EC50 (hMC-4R [2]) of 0.11 µM.
Work on `NC(Cc1ccc(Cl)cc1Cl)C(=O)N1CCC(c2cc(F)c(F)cc2OCCN2CCCC2)CC1` (centres unmarked) [Example 7] yielded an IC50 (hMC-4R [1]) of 0.057 µM and an Emax (hMC-4R [2]) of 29%.
`NC(Cc1ccc(Cl)cc1)C(=O)N1CCC(c2ccc(Cl)cc2OCCCN2CCCCC2)CC1` (centres unmarked) [Example 110] showed an IC50 (hMC-4R [1]) of 0.19 µM, an Emax (hMC-4R [2]) of 73% and an EC50 (hMC-4R [2]) of 0.28 µM.
Work on `NC(Cc1ccc(Cl)cc1)C(=O)N1CCC(c2ccc(F)cc2CCCN2CCCC2)CC1` (centres unmarked) [Example 114] yielded an IC50 (hMC-4R [1]) of 0.29 µM, an Emax (hMC-4R [2]) of 89% and an EC50 (hMC-4R [2]) of 0.64 µM.
Compound `NC(Cc1ccc(Cl)cc1)C(=O)N1CCC(c2cc(F)ccc2OCCN2CCCC2)CC1` (centres unmarked) [Example 105] has an IC50 (hMC-4R [1]) of 0.26 µM, an Emax (hMC-4R [2]) of 90% and an EC50 (hMC-4R [2]) of 0.57 µM.
`NC(Cc1ccc(Cl)cc1)C(=O)N1CCC(c2cc(Cl)ccc2OCCN2CCCC2)CC1` (centres unmarked) [Example 106] was tested, and the IC50 (hMC-4R [1]) was 0.15 µM, the Emax (hMC-4R [2]) was 87% and the EC50 (hMC-4R [2]) was 0.23 µM.
With `NC(Cc1ccc(Cl)cc1Cl)C(=O)N1CCC(c2ccc(Cl)cc2OCCN2CCCC2)CC1` (centres unmarked) [Example 3] the IC50 (hMC-4R [1]) was 0.028 µM and the “% activation functional assay” value (hMC-4R [2]) was “no activation”.
With `NC(Cc1ccc(Cl)cc1)C(=O)N1CCC(c2cc(F)c(F)cc2OCCN2CCCC2)CC1` (centres unmarked) [Example 111] the IC50 (hMC-4R [1]) was 0.31 µM, the Emax (hMC-4R [2]) was 75% and the EC50 (hMC-4R [2]) was 0.17 µM.
With `NC(Cc1ccc(Cl)cc1Cl)C(=O)N1CCC(c2ccccc2OCCN2CCCC2)CC1` (centres unmarked) [Example 1] the IC50 (hMC-4R [1]) was 0.13 µM and the “% activation functional assay” value (hMC-4R [2]) was “no activation”.
In the case of `NC(Cc1ccc(Cl)cc1)C(=O)N1CCC(c2ccccc2CCCN2CCCC2)CC1` (centres unmarked) [Example 113], the IC50 (hMC-4R [1]) was 0.79 µM, the Emax (hMC-4R [2]) was 78% and the EC50 (hMC-4R [2]) was 1.1 µM.
